Columns and labels:
HLA-A2 of T2 cells = molecular target: T1, HLA-A2 of T2 cells (Homo sapiens, UniProt P04439, D140Y/D185E/D98H/E176V/E277Q/G131W/G231S/I119V/I121R/I166T/I218V/L300P/L318F/N151K/N90K/P208A/P217A/Q86G/Q94H/R138H/R169H/T345S); test: Reactivity of MA2.1 mAb with T2 cells after culture with peptide (immunofluorescence, FL1); format: cell-based; conditions: peptide 50 μg/ml, overnight culture in IMDM-FCS
T1 construct: cell surface expression of HLA-A2 is lower (30-40%) than in normal LBL lines transfected with HLA-A2; endogenous in cells; host or cells: T2 (transport deletion mutant) human lymphoblastoid cells, obtained from Dr. Peter Creswell

C1R:A2 cells = test: Lysis of peptide-sensitized C1R:A2 cells by CTL cultures induced in vitro with C43 and C84; format: cell-based, human; conditions: E:T 10:1, donor 51
[1] = test system: C1R:A1 cells (HLA-A1 transfectants); test: Ag specificity of the 41.CD8+ CTL line on peptide-pulsed targets; format: cell-based, human
Protocol: FIG. 2A. Ag specificity of the 41.CD8^+ CTL line. C1R:A2 cells were pre-pulsed with either HER-2 peptides or control MUC-1 peptides before being incubated with effectors. The effector to target ratio was 10:1. C1R:A1 and C1R:A3 targets were pre-pulsed with the same peptides in the same conditions as C1R:A2 cells. Results for C1R:A1 and C1R:A3 show the difference between specific lysis of targets preincubated with peptides and control C1R:A1 and C1R:A3 targets. Specific lysis of control C1R:A1 and C1R:A3 cells was less than 10% at the same E:T ratio. Shown in FIG. 2A are results after 4 hrs' incubation.
Tumor cells and fibroblasts were labeled with 200 μCi of ^51Cr (Na^51CrO4; Amersham, Arlington Heights, Ill.) for 90 min at 37° C. (Ioannides et al., 1991). Lymphoblastoid cells and HLA-A2 transfectants were labeled overnight in RPMI-FCS, then washed three times and incubated with effector cells in RPMI-FCS in an incubator with 5%. […] When peptide recognition was determined, targets were incubated with 25 μM of peptides overnight during ^51Cr labeling or with 10 μM peptide for 2 h at 37° C. in RPMI-FCS then washed three times before being incubated with effector cells. […] After 4-5 h, 100 μl of supernatant was collected and counted. […] Percentage lysis was calculated from the formula: 100×[(E−S)/(T−S)], where E is experimental release, S is release in the absence of CTL, and T is release in 2 M HCl. […]

[2] = test system: HLA-A2- CTL from donors 14 and 15; test: Presentation of peptides by HLA-A2+ transfectants to HLA-A2- CTL; format: cell-based, human; conditions: CTL induced with the same peptides
C1R:A2 and T2 cells = test: Lysis by LAK cells in presence of peptides; format: cell-based, human
Description: It is unlikely that tumor killing by 41.CD8^+ CTL reflects LAK type activity. LAK cells lyse K562 with higher efficiency than they lyse human tumors (Grimm et al., 1982). Also, both C1R:A2 and SkOV3.A2 were transfected with the same HLA-A2 plasmid expression vector. […] In separate studies, LAK cells lysed effectively both C1R:A2 and T2 cells. This lysis was not affected by C43/C84 or mutated peptides based on this sequence.

Row | Sequence | FL1 of T2 cells stained with MA2.1 mAb (HLA-A2 of T2 cells) | difference between HER-2 peptide and control targets recognition (C1R:A2 cells; 4-hr assay) | difference between HER-2 peptide and control targets recognition (C1R:A2 cells; 20-hr assay) | lysis of peptide pulsed versus control targets by 41.CD8+ CTL [1] | cross-presentation to HLA-A2- CTL [2] | effect on lysis by LAK cells (C1R:A2 and T2 cells)
1 | RFRELVSEFSRMAR [Peptide C43, HER-2:968-981 14mer peptide] | failed to significantly increase FL1 | not significant | significant | failed to elicit a higher lysis of peptide pulsed than of control targets | did not cross-present | not affected
2 | ELVSEFSRV [Peptide C84, HER-2:971-979 analog, Met(P9) substituted by Val] | significant increase in FL1 | not significant | significant | failed to elicit a higher lysis of peptide pulsed than of control targets | did not cross-present | not affected
